From ChEMBL document CHEMBL5291721, “A preclinical secondary pharmacology resource illuminates target-adverse drug reaction associations of marketed drugs” (Nat Commun, 2023)

Legend:
[1] = target: T1, Nuclear receptor subfamily 1 group I member 3 (Homo sapiens, UniProt Q14994); format: functional
T1 sequence (Q14994 whole entry): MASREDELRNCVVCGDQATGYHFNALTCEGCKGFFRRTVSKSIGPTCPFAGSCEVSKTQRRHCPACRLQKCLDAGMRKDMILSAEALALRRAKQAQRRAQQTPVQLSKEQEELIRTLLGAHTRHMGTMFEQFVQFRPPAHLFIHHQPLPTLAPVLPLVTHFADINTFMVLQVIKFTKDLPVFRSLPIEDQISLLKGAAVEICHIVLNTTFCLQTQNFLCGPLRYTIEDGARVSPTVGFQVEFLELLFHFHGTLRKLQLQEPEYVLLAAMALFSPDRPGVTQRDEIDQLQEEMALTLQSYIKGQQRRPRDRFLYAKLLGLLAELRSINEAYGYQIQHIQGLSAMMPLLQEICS

[2] = target: T2, Retinoic acid receptor beta (Homo sapiens, UniProt P10826); format: functional, cell-based
T2 sequence (P10826 whole entry): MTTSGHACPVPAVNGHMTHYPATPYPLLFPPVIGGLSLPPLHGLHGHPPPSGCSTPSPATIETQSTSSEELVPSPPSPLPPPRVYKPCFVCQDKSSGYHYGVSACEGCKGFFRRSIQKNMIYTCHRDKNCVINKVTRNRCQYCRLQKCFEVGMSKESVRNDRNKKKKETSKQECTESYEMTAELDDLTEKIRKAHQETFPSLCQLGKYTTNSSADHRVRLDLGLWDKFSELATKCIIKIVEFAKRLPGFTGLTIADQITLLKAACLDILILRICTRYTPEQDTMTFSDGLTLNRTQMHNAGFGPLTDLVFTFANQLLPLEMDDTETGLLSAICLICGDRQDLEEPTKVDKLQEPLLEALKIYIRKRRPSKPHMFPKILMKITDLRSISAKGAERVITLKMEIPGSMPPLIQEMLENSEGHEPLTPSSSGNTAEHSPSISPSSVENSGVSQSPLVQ

Bile acid receptor = target: T3, Bile acid receptor (Homo sapiens, UniProt Q96RI1); format: functional
T3 sequence (Q96RI1 whole entry): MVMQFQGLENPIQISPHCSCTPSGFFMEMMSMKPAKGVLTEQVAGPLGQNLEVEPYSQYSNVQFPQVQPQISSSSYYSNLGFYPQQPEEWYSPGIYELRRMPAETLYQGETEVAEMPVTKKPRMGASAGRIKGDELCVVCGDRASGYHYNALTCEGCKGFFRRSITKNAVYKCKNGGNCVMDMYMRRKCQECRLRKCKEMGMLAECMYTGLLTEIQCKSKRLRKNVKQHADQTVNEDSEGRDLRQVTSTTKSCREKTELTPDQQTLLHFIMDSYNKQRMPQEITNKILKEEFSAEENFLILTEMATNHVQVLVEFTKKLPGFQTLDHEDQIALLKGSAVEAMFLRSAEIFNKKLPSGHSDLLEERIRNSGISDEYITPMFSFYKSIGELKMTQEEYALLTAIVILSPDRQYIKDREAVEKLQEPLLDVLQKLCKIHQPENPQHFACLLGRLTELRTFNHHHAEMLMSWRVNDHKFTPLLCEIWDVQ

[3] = target: T4, Peroxisome proliferator-activated receptor alpha (Homo sapiens, UniProt Q07869); format: functional
T4 sequence (Q07869 whole entry): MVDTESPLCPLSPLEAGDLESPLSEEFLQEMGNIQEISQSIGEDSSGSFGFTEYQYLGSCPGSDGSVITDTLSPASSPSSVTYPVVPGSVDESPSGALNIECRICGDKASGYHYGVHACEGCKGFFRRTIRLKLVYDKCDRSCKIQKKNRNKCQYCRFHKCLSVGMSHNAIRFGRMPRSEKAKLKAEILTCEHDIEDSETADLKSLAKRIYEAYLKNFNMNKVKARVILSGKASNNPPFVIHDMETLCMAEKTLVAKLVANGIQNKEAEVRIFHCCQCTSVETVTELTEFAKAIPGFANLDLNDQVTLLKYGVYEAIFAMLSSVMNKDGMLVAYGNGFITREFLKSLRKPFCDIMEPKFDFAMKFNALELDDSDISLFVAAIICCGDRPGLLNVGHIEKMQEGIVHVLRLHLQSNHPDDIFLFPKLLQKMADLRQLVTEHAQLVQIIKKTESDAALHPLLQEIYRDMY

[4] = target: T5, Prostaglandin G/H synthase 1 (Rattus norvegicus, UniProt Q63921); format: functional
T5 sequence (Q63921 whole entry): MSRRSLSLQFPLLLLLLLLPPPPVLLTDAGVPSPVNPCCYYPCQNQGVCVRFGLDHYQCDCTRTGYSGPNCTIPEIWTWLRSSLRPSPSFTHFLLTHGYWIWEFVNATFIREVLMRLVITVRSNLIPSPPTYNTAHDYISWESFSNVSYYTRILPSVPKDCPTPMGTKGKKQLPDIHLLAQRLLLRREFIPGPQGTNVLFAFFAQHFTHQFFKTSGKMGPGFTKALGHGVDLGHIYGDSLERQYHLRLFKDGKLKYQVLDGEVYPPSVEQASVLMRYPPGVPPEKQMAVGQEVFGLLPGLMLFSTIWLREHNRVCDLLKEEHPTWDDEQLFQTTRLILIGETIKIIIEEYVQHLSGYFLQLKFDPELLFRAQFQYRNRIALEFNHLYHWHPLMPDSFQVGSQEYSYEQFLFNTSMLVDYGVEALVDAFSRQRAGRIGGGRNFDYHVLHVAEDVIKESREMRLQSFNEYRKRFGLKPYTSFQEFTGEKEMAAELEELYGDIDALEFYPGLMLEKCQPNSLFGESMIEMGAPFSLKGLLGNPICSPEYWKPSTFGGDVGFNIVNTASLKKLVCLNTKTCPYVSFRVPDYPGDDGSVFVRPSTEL

[5] = target: 5-hydroxytryptamine receptor 2B (Homo sapiens, UniProt P41595)
Chain of 5-hydroxytryptamine receptor 2B (P41595 whole entry): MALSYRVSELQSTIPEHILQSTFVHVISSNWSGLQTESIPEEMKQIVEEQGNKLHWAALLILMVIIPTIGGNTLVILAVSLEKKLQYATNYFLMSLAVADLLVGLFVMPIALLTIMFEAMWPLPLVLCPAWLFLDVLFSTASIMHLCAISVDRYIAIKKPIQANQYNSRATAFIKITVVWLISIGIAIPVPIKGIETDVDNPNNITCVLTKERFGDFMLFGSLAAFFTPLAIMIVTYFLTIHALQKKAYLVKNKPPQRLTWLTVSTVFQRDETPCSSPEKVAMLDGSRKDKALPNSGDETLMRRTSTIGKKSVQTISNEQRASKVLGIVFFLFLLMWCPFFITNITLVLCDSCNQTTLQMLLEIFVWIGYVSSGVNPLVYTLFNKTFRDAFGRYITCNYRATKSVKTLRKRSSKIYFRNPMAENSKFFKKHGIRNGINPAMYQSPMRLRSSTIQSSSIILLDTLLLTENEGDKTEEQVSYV

[6] = target: 5-hydroxytryptamine receptor 5A (Homo sapiens, UniProt P47898)
Chain of 5-hydroxytryptamine receptor 5A (P47898 whole entry): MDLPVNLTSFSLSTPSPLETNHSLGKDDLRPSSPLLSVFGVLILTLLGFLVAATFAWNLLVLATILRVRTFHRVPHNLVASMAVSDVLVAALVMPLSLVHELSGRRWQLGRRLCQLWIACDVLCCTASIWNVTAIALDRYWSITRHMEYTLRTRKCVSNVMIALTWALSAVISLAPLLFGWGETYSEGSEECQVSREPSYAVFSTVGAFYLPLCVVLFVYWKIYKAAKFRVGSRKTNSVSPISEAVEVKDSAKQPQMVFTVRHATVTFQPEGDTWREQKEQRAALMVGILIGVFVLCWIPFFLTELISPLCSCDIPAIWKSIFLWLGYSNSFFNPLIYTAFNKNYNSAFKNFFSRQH
Note: assay procedure not described here.

## CC(C)/N=c1\cc2n(-c3ccc(Cl)cc3)c3ccccc3nc-2cc1Nc1ccc(Cl)cc1 [CLOFAZIMINE]
[1]
  AC50: > 30 µM
[2]
  AC50: > 30 µM
Bile acid receptor
  AC50: > 30 µM
[3]
  AC50: > 30 µM

## CN(C)CCC=C1c2ccccc2CCc2ccccc21 [AMITRIPTYLINE]
[4]
  AC50: > 30 µM

## CC(=O)SCC(Cc1ccccc1)C(=O)NCC(=O)OCc1ccccc1 (configuration not stated) [RACECADOTRIL]
[3]
  AC50: 29 µM

## Cc1ccc(C(C)C)c(O)c1 [THYMOL]
[5]
  AC50: 9.1 µM

## OCCOCCN1CCN(C(c2ccccc2)c2ccc(Cl)cc2)CC1 (configuration not stated) [HYDROXYZINE]
[6]
  AC50: 0.28 µM

## CN(C)CCCC1(c2ccc(F)cc2)OCc2cc(C#N)ccc21 (configuration not stated) [CITALOPRAM]
[5]
  AC50: 0.3 µM

## CCOC(=O)[C@H](CCc1ccccc1)N[C@@H](C)C(=O)N1Cc2ccccc2C[C@H]1C(=O)O
[6]
  AC50: > 10 µM

## CCN(CC)CCn1c(=O)c(Cc2ccc(OC)cc2)nc2ccccc21 [CAROVERINE]
[4]
  AC50: 15.9 µM

## Cc1c(C)c2c(c(C)c1O)CCC(C)(COc1ccc(CC3SC(=O)NC3=O)cc1)O2 (configuration not stated) [TROGLITAZONE]
[1]
  AC50: 3.4 µM
